From patent US20070218134A1, “Compositions Comprising Organic Compounds” (priority 2003, published 2007)
Structures can show the parent of a compound that is named as a salt.

Tests used:
[1] = degradation kinetics of fluvastatin in aqueous solution at various pH; type: physicochemical
Description: Certain HMG-CoA reductase inhibitors are extremely susceptible to degradation at pH below about 8. An example of such a compound comprises the compound having the USAN designation fluvastatin sodium (hereinafter “fluvastatin”), of the chemical designation: R*,S*-(E)(±)-7-[3-(4-fluorophenyl)-1-(1-methyl-ethyl)-1H-indol-2-yl]-3,5-dihydroxy-6-heptenoic acid, sodium salt, [see European Patent Application EP-A-114027].
For example, the degradation kinetics of fluvastatin in aqueous solution at various pH is illustrated below:
The above-indicated instability of fluvastatin and related HMG-CoA reductase compounds is believed to be due to the extreme lability of the β,δ-hydroxy groups on the heptenoic acid chain and the presence of the double bond, such that at neutral to acidic pH, the compounds readily undergo elimination or isomerization or oxidation reactions to form conjugated unsaturated aromatic compounds, as well as the threo isomer, the corresponding lactones, and other degradation products.

[2] = solubility of pitavastatin depending on pH; type: physicochemical; details: acidic pH conditions

% fluvastatin remaining at 37° C. ([1]; pH 1.0, after 1 hour) | % fluvastatin remaining at 37° C. ([1]; pH 1.0, after 24 hrs) | % fluvastatin remaining at 37° C. ([1]; pH 4.0, after 1 hour) | % fluvastatin remaining at 37° C. ([1]; pH 4.0, after 24 hrs) | % fluvastatin remaining at 37° C. ([1]; pH 6.0, after 1 hour) | % fluvastatin remaining at 37° C. ([1]; pH 6.0, after 24 hrs) | % fluvastatin remaining at 37° C. ([1]; pH 7.8, after 1 hour) | % fluvastatin remaining at 37° C. ([1]; pH 7.8, after 24 hrs) | solubility of pitavastatin [2] | Compound
10.9% | 0% | 86.7% | 25.2% | 99.6% | 97.1% | 98.3% | 98.0% | – | CC(C)n1c(/C=C/C(O)CC(O)CC(=O)O)c(-c2ccc(F)cc2)c2ccccc21 (stereo not drawn) [fluvastatin, R*,S*-(E)(±)-7-[3-(4-fluorophenyl)-1-(1-methyl-ethyl)-1H-indol-2-yl]-3,5-dihydroxy-6-heptenoic acid, sodium salt]
– | – | – | – | – | – | – | – | higher | O=C(O)C[C@H](O)C[C@H](O)/C=C/c1c(C2CC2)nc2ccccc2c1-c1ccc(F)cc1 [pitavastatin]
